Legend:
[1] = tested on: ALK tyrosine kinase receptor (Homo sapiens), Q9UM73 [C1156Y]; conditions: Compound concentration 1000.0 nM
[2] = target: BMP-2-inducible protein kinase (Homo sapiens) (UniProt Q9NSY1); conditions: Compound concentration 1000.0 nM
[3] = target: Tyrosine-protein kinase BTK (Homo sapiens) (UniProt Q06187); conditions: Compound concentration 1000.0 nM
[4] = target: T1, Calcium/calmodulin-dependent protein kinase type IV (Homo sapiens) (UniProt Q16566); conditions: Compound concentration 1000.0 nM
T1 sequence (whole entry): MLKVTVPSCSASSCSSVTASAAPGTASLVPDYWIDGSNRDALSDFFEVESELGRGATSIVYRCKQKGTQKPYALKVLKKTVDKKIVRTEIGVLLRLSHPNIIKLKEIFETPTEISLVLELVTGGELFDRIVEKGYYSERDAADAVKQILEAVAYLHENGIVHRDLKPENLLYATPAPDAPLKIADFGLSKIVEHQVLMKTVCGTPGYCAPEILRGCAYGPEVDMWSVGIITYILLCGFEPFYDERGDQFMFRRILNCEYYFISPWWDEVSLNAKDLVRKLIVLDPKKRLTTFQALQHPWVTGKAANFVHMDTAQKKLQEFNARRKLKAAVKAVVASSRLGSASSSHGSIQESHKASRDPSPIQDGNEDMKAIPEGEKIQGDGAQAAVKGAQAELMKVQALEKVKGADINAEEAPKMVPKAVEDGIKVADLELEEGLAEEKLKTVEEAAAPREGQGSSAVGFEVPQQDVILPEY

[5] = target: Cyclin-dependent kinase 11B (Homo sapiens) (UniProt P21127); conditions: Compound concentration 1000.0 nM
[6] = target: Cyclin-dependent kinase 4 (Homo sapiens) (UniProt P11802); conditions: Compound concentration 1000.0 nM
[7] = target: Cyclin-dependent kinase 4 (Homo sapiens) (UniProt P11802); conditions: Compound concentration 1000.0 nM; remark: listed apart in the source
[8] = target: Casein kinase I isoform alpha-like (Homo sapiens) (UniProt Q8N752); conditions: Compound concentration 1000.0 nM
[9] = target: Casein kinase II subunit alpha (Homo sapiens) (UniProt P68400); conditions: Compound concentration 1000.0 nM
[10] = target: Epithelial discoidin domain-containing receptor 1 (Homo sapiens) (UniProt Q08345); conditions: Compound concentration 1000.0 nM
[11] = tested on: Mast/stem cell growth factor receptor Kit (Homo sapiens), P10721 [V559D,V654A]; conditions: Compound concentration 1000.0 nM
[12] = target: LIM domain kinase 2 (Homo sapiens) (UniProt P53671); conditions: Compound concentration 1000.0 nM
[13] = target: Dual specificity mitogen-activated protein kinase kinase 4 (Homo sapiens) (UniProt P45985); conditions: Compound concentration 1000.0 nM
[14] = tested on: Phosphatidylinositol 4,5-bisphosphate 3-kinase catalytic subunit alpha isoform (Homo sapiens), P42336 [C420R]; conditions: Compound concentration 1000.0 nM
[15] = target: Phosphatidylinositol 4,5-bisphosphate 3-kinase catalytic subunit gamma isoform (Homo sapiens) (UniProt P48736); conditions: Compound concentration 1000.0 nM
[16] = target: T2, cGMP-dependent protein kinase 1 (Homo sapiens) (UniProt Q13976); conditions: Compound concentration 1000.0 nM
T2 sequence (whole entry): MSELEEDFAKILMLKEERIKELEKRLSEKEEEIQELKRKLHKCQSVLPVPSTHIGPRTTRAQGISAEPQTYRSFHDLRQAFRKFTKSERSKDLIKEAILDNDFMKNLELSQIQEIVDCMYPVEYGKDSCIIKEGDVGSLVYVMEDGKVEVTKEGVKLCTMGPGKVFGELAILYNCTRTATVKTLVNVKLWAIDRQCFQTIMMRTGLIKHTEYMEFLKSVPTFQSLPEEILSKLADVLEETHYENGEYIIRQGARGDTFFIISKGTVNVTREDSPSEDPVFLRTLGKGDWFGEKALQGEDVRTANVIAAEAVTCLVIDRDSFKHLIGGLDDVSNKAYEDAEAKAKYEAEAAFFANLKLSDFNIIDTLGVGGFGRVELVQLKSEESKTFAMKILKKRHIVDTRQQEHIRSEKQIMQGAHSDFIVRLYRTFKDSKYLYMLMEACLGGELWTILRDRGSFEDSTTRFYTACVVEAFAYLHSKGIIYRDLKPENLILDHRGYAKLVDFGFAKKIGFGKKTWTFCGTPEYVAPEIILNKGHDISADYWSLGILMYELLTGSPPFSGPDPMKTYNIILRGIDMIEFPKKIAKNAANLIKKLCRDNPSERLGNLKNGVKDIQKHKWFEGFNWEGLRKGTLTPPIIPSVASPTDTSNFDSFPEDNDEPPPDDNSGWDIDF

[17] = target: SNF-related serine/threonine-protein kinase (Homo sapiens) (UniProt Q9NRH2); conditions: Compound concentration 1000.0 nM
[18] = target: Serine/threonine-protein kinase tousled-like 1 (Homo sapiens) (UniProt Q9UKI8); conditions: Compound concentration 1000.0 nM
[19] = target: Non-receptor tyrosine-protein kinase TNK1 (Homo sapiens) (UniProt Q13470); conditions: Compound concentration 1000.0 nM
[20] = target: Kappa-type opioid receptor (Homo sapiens) (UniProt P41145); conditions: Compound concentration 10.0 uM
[21] = target: Muscarinic acetylcholine receptor M5 (Homo sapiens) (UniProt P08912); conditions: Compound concentration 10.0 uM
Sequence of Muscarinic acetylcholine receptor M5 (Homo sapiens) (P08912 whole entry): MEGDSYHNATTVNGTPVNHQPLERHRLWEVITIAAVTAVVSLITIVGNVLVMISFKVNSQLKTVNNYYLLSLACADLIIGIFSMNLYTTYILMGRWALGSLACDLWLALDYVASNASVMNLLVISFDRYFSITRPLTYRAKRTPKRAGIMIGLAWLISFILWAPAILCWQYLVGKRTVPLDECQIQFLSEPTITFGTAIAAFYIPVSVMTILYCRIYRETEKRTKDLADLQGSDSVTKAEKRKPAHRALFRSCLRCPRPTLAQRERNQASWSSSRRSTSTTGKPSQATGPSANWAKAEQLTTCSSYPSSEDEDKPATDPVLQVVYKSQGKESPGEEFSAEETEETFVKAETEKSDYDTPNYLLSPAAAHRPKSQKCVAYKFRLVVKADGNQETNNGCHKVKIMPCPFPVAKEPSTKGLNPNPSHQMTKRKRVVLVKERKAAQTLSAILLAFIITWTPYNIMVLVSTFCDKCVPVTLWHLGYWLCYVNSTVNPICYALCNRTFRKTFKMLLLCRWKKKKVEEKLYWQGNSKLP

Sequence of Cyclin-dependent kinase 4 (Homo sapiens) (P11802 whole entry, canonical isoform): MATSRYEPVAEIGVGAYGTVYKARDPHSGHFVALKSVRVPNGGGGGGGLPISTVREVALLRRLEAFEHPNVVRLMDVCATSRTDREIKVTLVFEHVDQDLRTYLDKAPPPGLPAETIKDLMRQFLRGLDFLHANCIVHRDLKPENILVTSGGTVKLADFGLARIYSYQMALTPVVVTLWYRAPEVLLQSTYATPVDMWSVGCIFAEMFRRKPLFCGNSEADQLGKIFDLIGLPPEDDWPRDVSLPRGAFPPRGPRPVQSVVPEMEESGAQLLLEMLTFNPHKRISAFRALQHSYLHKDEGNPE
Sequence of Serine/threonine-protein kinase tousled-like 1 (Homo sapiens) (Q9UKI8 whole entry): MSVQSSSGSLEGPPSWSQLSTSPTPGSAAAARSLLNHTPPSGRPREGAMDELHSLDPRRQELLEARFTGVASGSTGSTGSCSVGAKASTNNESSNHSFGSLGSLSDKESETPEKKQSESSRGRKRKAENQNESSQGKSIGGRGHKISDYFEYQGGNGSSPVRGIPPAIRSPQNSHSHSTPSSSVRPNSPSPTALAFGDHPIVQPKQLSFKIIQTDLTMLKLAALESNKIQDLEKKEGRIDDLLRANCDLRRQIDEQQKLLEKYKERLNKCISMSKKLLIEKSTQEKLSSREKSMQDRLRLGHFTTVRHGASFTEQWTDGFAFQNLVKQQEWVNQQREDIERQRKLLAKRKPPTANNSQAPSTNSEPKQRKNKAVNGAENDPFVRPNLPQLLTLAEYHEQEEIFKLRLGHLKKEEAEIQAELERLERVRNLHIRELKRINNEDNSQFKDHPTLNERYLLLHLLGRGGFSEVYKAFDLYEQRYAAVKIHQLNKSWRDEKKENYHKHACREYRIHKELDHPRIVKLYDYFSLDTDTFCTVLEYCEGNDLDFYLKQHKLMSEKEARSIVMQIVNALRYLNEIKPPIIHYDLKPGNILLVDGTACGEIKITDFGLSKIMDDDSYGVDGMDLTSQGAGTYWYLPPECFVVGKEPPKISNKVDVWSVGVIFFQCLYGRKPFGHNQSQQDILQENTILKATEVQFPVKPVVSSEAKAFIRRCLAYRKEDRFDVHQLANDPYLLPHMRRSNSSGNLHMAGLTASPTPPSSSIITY
Sequence of Cyclin-dependent kinase 11B (Homo sapiens) (P21127 whole entry): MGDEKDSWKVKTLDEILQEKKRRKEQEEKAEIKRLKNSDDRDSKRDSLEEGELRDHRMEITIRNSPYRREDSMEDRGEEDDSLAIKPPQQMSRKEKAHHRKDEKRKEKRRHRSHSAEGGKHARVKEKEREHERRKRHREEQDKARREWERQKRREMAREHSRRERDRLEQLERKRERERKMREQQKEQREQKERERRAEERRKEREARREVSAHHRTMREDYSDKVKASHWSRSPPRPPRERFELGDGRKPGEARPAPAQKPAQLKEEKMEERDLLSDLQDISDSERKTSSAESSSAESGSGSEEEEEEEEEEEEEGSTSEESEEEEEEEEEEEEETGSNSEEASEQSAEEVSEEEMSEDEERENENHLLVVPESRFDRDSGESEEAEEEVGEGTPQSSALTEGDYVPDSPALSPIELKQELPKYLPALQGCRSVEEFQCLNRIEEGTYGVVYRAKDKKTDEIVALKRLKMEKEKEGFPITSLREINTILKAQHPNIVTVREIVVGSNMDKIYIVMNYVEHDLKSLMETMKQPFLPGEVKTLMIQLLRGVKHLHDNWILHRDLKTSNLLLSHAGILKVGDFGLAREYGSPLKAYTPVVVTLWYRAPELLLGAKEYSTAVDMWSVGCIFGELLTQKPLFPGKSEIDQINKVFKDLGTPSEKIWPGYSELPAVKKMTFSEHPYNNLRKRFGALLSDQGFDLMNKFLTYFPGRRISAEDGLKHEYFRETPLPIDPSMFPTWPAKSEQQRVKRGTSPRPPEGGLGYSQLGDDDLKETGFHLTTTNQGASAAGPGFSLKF
Sequence of BMP-2-inducible protein kinase (Homo sapiens) (Q9NSY1 whole entry, looked up): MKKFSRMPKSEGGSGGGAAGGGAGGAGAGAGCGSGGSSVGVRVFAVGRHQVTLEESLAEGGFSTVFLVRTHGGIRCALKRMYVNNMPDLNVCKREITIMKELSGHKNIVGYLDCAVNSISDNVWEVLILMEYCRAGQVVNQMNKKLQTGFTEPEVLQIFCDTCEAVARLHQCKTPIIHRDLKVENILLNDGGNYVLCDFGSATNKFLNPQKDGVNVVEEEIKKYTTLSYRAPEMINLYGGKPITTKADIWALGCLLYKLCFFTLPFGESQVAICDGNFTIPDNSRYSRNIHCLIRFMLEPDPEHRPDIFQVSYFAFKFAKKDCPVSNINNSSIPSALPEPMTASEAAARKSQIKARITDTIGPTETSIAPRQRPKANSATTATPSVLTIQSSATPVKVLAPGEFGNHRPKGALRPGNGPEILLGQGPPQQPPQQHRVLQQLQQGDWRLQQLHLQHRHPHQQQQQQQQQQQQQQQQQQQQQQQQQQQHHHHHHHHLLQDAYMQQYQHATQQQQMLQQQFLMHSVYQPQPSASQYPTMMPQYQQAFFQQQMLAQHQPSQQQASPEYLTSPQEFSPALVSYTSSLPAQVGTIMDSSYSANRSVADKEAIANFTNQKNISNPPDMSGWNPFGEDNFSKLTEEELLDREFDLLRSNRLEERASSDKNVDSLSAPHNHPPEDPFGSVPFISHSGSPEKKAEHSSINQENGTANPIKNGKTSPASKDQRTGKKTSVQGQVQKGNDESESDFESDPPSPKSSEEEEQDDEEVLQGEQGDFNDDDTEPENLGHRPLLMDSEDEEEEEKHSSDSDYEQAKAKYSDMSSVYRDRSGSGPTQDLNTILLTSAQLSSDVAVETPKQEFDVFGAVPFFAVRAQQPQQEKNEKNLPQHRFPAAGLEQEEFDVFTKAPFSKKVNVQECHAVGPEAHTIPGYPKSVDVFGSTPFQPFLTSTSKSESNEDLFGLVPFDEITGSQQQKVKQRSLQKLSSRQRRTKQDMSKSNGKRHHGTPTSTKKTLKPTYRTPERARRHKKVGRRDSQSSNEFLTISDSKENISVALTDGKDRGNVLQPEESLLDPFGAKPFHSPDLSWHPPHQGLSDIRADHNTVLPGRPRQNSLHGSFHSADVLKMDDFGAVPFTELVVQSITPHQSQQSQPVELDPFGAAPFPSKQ
Sequence of Epithelial discoidin domain-containing receptor 1 (Homo sapiens) (Q08345 whole entry, the tested form may be a part): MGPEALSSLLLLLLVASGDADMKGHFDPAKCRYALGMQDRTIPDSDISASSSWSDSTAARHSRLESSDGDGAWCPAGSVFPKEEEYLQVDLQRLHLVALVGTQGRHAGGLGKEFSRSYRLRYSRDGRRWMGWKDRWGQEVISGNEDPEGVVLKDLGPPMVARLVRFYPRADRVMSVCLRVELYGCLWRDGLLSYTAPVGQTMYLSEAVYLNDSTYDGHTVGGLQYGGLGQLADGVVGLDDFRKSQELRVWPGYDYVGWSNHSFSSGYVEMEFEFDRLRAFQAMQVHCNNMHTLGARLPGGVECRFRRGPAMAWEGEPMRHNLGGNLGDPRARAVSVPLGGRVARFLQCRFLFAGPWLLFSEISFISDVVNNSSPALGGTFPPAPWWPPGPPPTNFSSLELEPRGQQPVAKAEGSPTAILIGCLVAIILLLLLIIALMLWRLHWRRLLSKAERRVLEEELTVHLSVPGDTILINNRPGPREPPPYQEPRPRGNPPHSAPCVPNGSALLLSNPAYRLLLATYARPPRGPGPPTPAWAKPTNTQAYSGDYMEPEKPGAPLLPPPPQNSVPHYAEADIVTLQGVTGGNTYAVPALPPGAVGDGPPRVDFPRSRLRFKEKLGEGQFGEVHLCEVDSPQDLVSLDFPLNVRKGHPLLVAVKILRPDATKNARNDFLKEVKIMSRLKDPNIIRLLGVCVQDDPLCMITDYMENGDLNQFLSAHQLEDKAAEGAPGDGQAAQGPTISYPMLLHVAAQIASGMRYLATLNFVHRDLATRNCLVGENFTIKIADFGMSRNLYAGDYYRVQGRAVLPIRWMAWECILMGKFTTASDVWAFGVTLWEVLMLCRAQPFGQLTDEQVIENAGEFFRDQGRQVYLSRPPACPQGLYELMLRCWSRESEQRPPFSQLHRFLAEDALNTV
Sequence of Dual specificity mitogen-activated protein kinase kinase 4 (Homo sapiens) (P45985 whole entry, canonical isoform): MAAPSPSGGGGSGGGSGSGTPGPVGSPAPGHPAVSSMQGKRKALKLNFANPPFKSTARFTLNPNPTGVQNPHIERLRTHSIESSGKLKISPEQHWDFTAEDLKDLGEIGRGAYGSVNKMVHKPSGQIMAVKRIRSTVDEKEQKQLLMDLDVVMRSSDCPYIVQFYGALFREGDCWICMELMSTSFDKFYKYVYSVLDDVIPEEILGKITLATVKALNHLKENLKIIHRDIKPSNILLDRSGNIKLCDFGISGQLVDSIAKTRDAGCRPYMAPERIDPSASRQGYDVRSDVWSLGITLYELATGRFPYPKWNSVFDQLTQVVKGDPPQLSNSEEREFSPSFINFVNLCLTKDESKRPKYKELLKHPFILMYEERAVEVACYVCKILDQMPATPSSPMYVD

CN(C)C(=O)Cn1cc(-c2nc(C3(c4ccc(-c5cnc(N)nc5)cc4)CC3)no2)cn1 [BI 0153]
inactive: residual activity [1] 100% | residual activity [2] 99% | residual activity [3] 82% | residual activity [4] 100% | residual activity [5] 96% | residual activity [6] 67% | residual activity [8] 98% | residual activity [9] 73% | residual activity [10] 86% | residual activity [11] 100% | residual activity [12] 85% | residual activity [13] 93% | residual activity [14] 95% | residual activity [15] 85% | residual activity [16] 89% | residual activity [17] 100% | residual activity [18] 100% | residual activity [19] 96% | inhibition [20] 16.2% | inhibition [21] -1.63%
active: residual activity [7] 44%

CN(C)C(=O)Cn1cc(-c2nc([C@@](C)(c3ccc(-c4cnc(N)nc4)cc3)C3CC3)no2)cn1 [BI 665915]
inactive: residual activity [1] 98% | residual activity [2] 100% | residual activity [3] 73% | residual activity [4] 83% | residual activity [5] 79% | residual activity [6] 94% | residual activity [7] 94% | residual activity [8] 100% | residual activity [9] 88% | residual activity [10] 90% | residual activity [11] 93% | residual activity [12] 85% | residual activity [13] 100% | residual activity [14] 73% | residual activity [15] 72% | residual activity [16] 100% | residual activity [17] 89% | residual activity [18] 100% | residual activity [19] 100% | inhibition [20] 33.9% | inhibition [21] 5.21%
